Data as given in BindingDB's records for doi:10.1021/jm00079a011 (Kanebo, 1992).

Target: DNA gyrase (Escherichia coli)
Assay: The inhibitory activity was measured for the supercoiling activity of DNA gyrase isolated from Escherichia coli K-12 C600.

`O=C(O)c1c(=O)c2cc(F)c(N3CCCC3)c3c2n2c(csc12)CO3` gave an IC50 of 2580 nM.

`CC1COc2c(N3CCNCC3)c(F)cc3c(=O)c(C(=O)O)cn1c23` (stereo unspecified) showed an IC50 of 1690 nM.

`NC1CCN(c2c(F)cc3c(=O)c(C(=O)O)c4scc5n4c3c2OC5)C1` (stereo unspecified) gave an IC50 of 666 nM.

`CN1CCN(c2c(F)cc3c(=O)c(C(=O)O)c4scc5n4c3c2OC5)CC1` gave an IC50 of 727 nM.

Compound `O=C(O)c1c(=O)c2cc(F)c(N3CCC(O)C3)c3c2n2c(csc12)CO3` (stereo unspecified) has an IC50 of 929 nM.

Compound `O=C(O)c1c(=O)c2cc(F)c(N3CCNCC3)c3c2n2c(csc12)CO3` has an IC50 of 452 nM.
